# Patent publication US20120245229A1, “METHOD FOR TREATING NEUROPATHIC PAIN” (priority 2009, published 2012)
# Experiments:
# [1] = system: complete Freund's adjuvant (CFA)-evoked heat hyperalgesia; experiment: CFA-evoked heat hyperalgesia (paw withdrawal latency, Hargreaves); assay type: in vivo, mice; conditions: intrathecal, post-CFA day 3; DHA and EPA 10 μg
# Experimental: (§1) Animals and pain models. Adult CD1 mice (male, 25-32 g) were used for most experiments. Knockout mice were used lacking TNFR1/II (Tnfrsf1a/1b^−/−) and TRPV1 (Trpv1^−/−) and C57BL/6 wild-type control mice, all from Jackson, for some experiments. All animal procedures performed in this study were approved by the Harvard Medical Area Standing Committee on Animals. 20 μl of diluted formalin (5%), carrageenan (CRG, 1%), or complete Freund's adjuvant (CFA) were injected into the plantar surface of a hindpaw to produce acute, persistent, or chronic inflammatory pain, respectively. Postoperative pain was also produced through hindpaw incision^36 and neuropathic pain by ligation of the spinal nerve^37.
# Reagents and administration. RvE1 and RvD1 were suspended in 1% or 10% ethanol as vehicle for investigating acute (<1 h) and persistent (1-6 h) effects of resolvins on inflammatory pain. The reagents (10 μl) were delivered to the cerebral spinal fluid via intrathecal injection made by a spinal cord puncture between the L5 and L6 level with a 30G needle^38.
# (§2) Behavioral analysis. Mice were habituated in the testing environment for two days and performed behavioral testing in a blinded manner. Formalin-evoked spontaneous inflammatory pain was assessed by measuring duration (seconds) animals spent on licking/flinching the affected paws every 5 min for 45 min. Capsaicin-induced spontaneous pain was aslo assessed for 10 min. For testing mechanical sensitivity, mice were put in boxes on an elevated metal mesh floor and stimulated hindpaw with a series of von Frey hairs with logarithmically incrementing stiffness (0.02-2.56 grams, Stoelting), presented perpendicular to the plantar surface. It was determined the 50% paw withdrawal threshold using Dixon's up-down method^40. For testing heat sensitivity, mice were placed in plastic boxes and tested heat sensitivity using Hargreaves radiant heat apparatus (IITC Life Science Inc.). The basal paw withdrawal latency was adjusted to 9-12 seconds and set a cut-off of 20 seconds to prevent tissue damage. The percent maximal possible antinociceptive effect (% M.P.E) was calculated using the equation % M.P.E.=[(PL−BL2)/(BL1−BL2)]×100. BL1, baseline latency before inflammation; BL2, baseline latency after inflammation but before drug injection; PL, latency post drug injection.
# Intrathecal injection. To avoid systemic effects of drugs and target spinal mechanisms, drugs were delivered into cerebral spinal fluid (CSF) space around lumbosacral spinal cord via intrathecal (i.t.) administration. Spinal cord puncture was made with a 30G needle between the L5 and L6 level to deliver the reagents (10 μl) to the cerebral spinal fluid (Hylden and Wilcox, 1980)^5. […] In addition to spinal cord cells, intrathecal drug administration also affects DRG cells^6,7.
# The anti-hyperalgesic efficacy of RvE1 prepared in 1% and 10% ethanol was compared on post-CFA day 3.
# inflammatory pain = experiment: Inflammatory pain models induced by formalin or CFA (summary statements); assay type: in vivo, mouse
# Experimental: as §1, §2
# [2] = system: paw incision-induced postoperative pain; experiment: Postoperative pain model induced by hindpaw incision; assay type: in vivo, mice; conditions: intraplantar 20 ng, 10 min before paw incision
# Experimental: as §1
# Behavioral analysis. Mice were habituated in the testing environment for two days and performed behavioral testing in a blinded manner. Formalin-evoked spontaneous inflammatory pain was assessed by measuring duration (seconds) animals spent on licking/flinching the affected paws every 5 min for 45 min. Capsaicin-induced spontaneous pain was aslo assessed for 10 min. […] It was determined the 50% paw withdrawal threshold using Dixon's up-down method^40. […] The percent maximal possible antinociceptive effect (% M.P.E) was calculated using the equation % M.P.E.=[(PL−BL2)/(BL1−BL2)]×100. […]
# [3] = system: carrageenan (CRG)-elicited heat hyperalgesia; experiment: Carrageenan (CRG)-elicited heat hyperalgesia; assay type: in vivo, mice; conditions: intraplantar pretreatment, 20 ng, 10 min before carrageenan
# Experimental: as §1, §2
# Resolvins were also used for intraplantar injection. […]
compound,measurement,setting,value
CC/C=C\C[C@H](O)/C=C/C=C\C=C\C=C\[C@@H](O)[C@@H](O)C/C=C\CCC(=O)O [RvD1],CFA-evoked heat hyperalgesia,[1],Attenuation
same,pain-like behaviors,inflammatory pain,potently inhibit
same,paw incision-induced mechanical allodynia,[2],attenuates the development of paw incision-induced mechanical allodynia
same,CRG-evoked heat hyperalgesia,[3],substantially attenuated
